The results in this text go back to patent US20260041781A1, “NOVEL GLUCOCORTICOID RECEPTOR AGONISTS AND IMMUNOCONJUGATES THEREOF” (priority 2022, published 2026).

This experiment deals with T1, GR LBD (ligand binding domain) (Homo sapiens, UniProt P04150).
T1 construct: expressed in transfected cells; host or cells: HEK293
T1 sequence (P04150 524-758 limits assumed): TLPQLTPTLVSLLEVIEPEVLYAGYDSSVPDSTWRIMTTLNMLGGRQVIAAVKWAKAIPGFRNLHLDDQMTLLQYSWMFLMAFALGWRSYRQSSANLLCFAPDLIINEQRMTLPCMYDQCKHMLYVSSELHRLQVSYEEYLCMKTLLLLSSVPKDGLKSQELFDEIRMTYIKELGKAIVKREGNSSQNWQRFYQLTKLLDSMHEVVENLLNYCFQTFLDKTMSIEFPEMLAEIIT
The experiment can be described thus: GR Reporter Assay (pBind assay, pG5luc luciferase reporter, agonist mode). Format: cell-based. To be noted: HEK293 cells transiently transfected with pG5luc and GR LBD. The procedure:
The assay is a pBind assay following the general principle outlined below. 2×10^4 HEK293 cells/96-well are transiently transfected with pG5luc and GR LBD 1:1 at 50 ng/well. GR LBD (ligand binding domain) is a […] fusion protein (used to yeast GAL4) and upon binding to the test article will bind the luciferase reporter and activate transcription of luciferase. Upon addition of a substrate, the luciferase activity can be measured and corresponds to the activity of the test article. The assay is performed in agonist mode.
Background: A reporter such as luciferase makes a cellular process visible.

SMILES strings stand for the structures. Some results are limits rather than exact numbers.

In the case of `C[C@]12C=CC(=O)C=C1CC[C@H]1[C@@H]3C[C@H]4O[C@@H](c5cccc(N)c5)O[C@@]4(C(=O)CF)[C@@]3(C)C[C@H](O)[C@@]12F` [Compound 3], the EC50 is < 5 nM. As to `CN(C)C(=O)[C@@]12O[C@H](c3cccc(Cc4cccc(N)c4)c3)O[C@@H]1C[C@H]1[C@@H]3CCC4=CC(=O)C=C[C@]4(C)[C@H]3[C@@H](O)C[C@@]12C` [Compound 23], the EC50 was < 5 nM. `C[C@@H]1C[C@H]2[C@@H]3C[C@H](F)C4=CC(=O)C=C[C@]4(C)[C@@]3(F)[C@@H](O)C[C@]2(C)[C@@]1(OC(=O)c1cccc(N)c1)C(=O)N1CCCC1` [Compound 14]: the EC50 was > 30 nM. The result for `C[C@@H]1C[C@H]2[C@@H]3C[C@H](F)C4=CC(=O)C=C[C@]4(C)[C@@]3(F)[C@@H](O)C[C@]2(C)[C@@]1(OC(=O)c1ccco1)C(=O)NCCOc1ccc(N)cc1` [Compound 7] reads < 5 nM; that for `CNC(=O)[C@@]1(OC(=O)c2ccc(N)cc2)[C@H](C)C[C@H]2[C@@H]3C[C@H](F)C4=CC(=O)C=C[C@]4(C)[C@@]3(F)[C@@H](O)C[C@@]21C` [Compound 11], > 30 nM; that for `C[C@@H]1C[C@H]2[C@@H]3CCC4=CC(=O)C=C[C@]4(C)[C@@]3(F)[C@@H](O)C[C@]2(C)[C@@]1(OC(=O)c1cccc(N)c1)C(=O)N(C)C` [Compound 12], < 5 nM. Next, `C[C@@H]1C[C@H]2[C@@H]3C[C@H](F)C4=CC(=O)C=C[C@]4(C)[C@@]3(F)[C@@H](O)C[C@]2(C)[C@@]1(OC(=O)c1cccc(N)c1)C(=O)N1CCOCC1` [Compound 15]: > 30 nM; `C[C@@H]1C[C@H]2[C@@H]3C[C@H](F)C4=CC(=O)C=C[C@]4(C)[C@@]3(F)[C@@H](O)C[C@]2(C)[C@@]1(OC(=O)c1cccc(N)c1)C(=O)N(C)C` [Compound 8]: < 5 nM; `C[C@@H]1C[C@H]2[C@@H]3C[C@H](F)C4=CC(=O)C=C[C@]4(C)[C@@]3(F)[C@@H](O)C[C@]2(C)[C@@]1(OC(=O)c1cccc(N)c1)C(=O)N1CC(CO)C1` [Compound 17]: > 30 nM. For `C[C@@H]1C[C@H]2[C@@H]3C[C@H](F)C4=CC(=O)C=C[C@]4(C)[C@@]3(F)[C@@H](O)C[C@]2(C)[C@@]1(OC(=O)c1cccc(N)c1)C(=O)N(C)CCO` [Compound 18], the EC50 was > 30 nM. As to `C[C@@H]1C[C@H]2[C@@H]3C[C@H](F)C4=CC(=O)C=C[C@]4(C)[C@@]3(F)[C@@H](O)C[C@]2(C)[C@@]1(OC(=O)c1ccc(N)cc1)C(=O)N(C)C` [Compound 9], the EC50 is < 5 nM.

Take `CNC(=O)[C@@]1(OC(=O)c2cccc(N)c2)[C@H](C)C[C@H]2[C@@H]3C[C@H](F)C4=CC(=O)C=C[C@]4(C)[C@@]3(F)[C@@H](O)C[C@@]21C` [Compound 10]: the concentration for a half-maximal effect (EC50) is > 30 nM. Take `C[C@@H]1C[C@H]2[C@@H]3C[C@H](F)C4=CC(=O)C=C[C@]4(C)[C@@]3(F)[C@@H](O)C[C@]2(C)[C@@]1(OC(=O)c1cccc(N)c1)C(=O)NCCO` [Compound 19]: the 50% effective concentration (EC50) was > 30 nM. In the case of `C[C@]12C=CC(=O)C=C1CC[C@@H]1[C@@H]2[C@@H](O)C[C@@]2(C)[C@H]1C[C@H]1O[C@@H](c3ccc(Cc4cccc(N)c4)cc3)O[C@]12C(=O)CF` [Compound 25], the half-maximal effective concentration (EC50) was < 5 nM. Next, `C[C@]12C=CC(=O)C=C1CC[C@H]1[C@@H]3C[C@H]4O[C@H](c5cccc(N)c5)O[C@@]4(C(=O)CCl)[C@@]3(C)C[C@H](O)[C@@]12F` [Compound 1]: < 5 nM. Take `C[C@]12C=CC(=O)C=C1CC[C@H]1[C@@H]3C[C@H]4O[C@@H](c5cccc(N)c5)O[C@@]4(C(=O)CCl)[C@@]3(C)C[C@H](O)[C@@]12F` [Compound 2]: the EC50 is < 5 nM. Next, `C[C@@H]1C[C@H]2[C@@H]3C[C@H](F)C4=CC(=O)C=C[C@]4(C)[C@@]3(F)[C@@H](O)C[C@]2(C)[C@@]1(OC(=O)c1cccc(N)c1)C(=O)N(C)CC(O)CO` (stereo partly drawn) [Compound 20, (6S,8S,9R,10S,11S,13S,14S,16R,17R)-17-((2,3-dihydroxypropyl)(methyl)carbamoyl)-6,9-difluoro-11-hydroxy-10,13,16-trimethyl-3-oxo-6,7,8,9,10,11,12,13,14,15,16,17-dodecahydro-3H-cyclopenta[a]phenanthren-17-yl 3-aminobenzoate]: > 30 nM.

As a reminder, the EC50 is the concentration that produces a half-maximal response. High values mean a less potent agent, low ones a more potent agent.
